Test systems include OVCAR-5 ovarian; HL-60(TB) leukemia; UO-31 renal; EKVX NSCLC; SR leukemia; SW-620 colon; MALME-3M melanoma; LOX IMVI melanoma; U251 CNS; HCT-116 colon.
Assay in all cases: NCI-60 cell line screen, 48 h

Among the data in PubChem BioAssay (NCI) are TGI and GI50 values, retold here.

Structures are written as SMILES.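 Test compounds were applied to cells in 96-well plates for 48 hours at 5 doses. Abbreviation: GI50, concentration required for 50% inhibition of growth. TGI: concentration producing complete growth inhibition.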

For `COC(=O)C1(N2CCOCC2)CCC([C@@H](c2ccccc2)C(C)[N+](=O)[O-])C1` (stereo partly drawn), the TGI in the test on OVCAR-5 ovarian was over 100 µM; with HL-60(TB) leukemia, over 100 µM; in the test with UO-31 renal, over 100 µM; in the test with EKVX NSCLC, over 100 µM; with SR leukemia, 60.4 µM; in the test on SW-620 colon, over 100 µM. For the same molecule, the TGI with MALME-3M melanoma, with LOX IMVI melanoma and in the test with U251 CNS was over 100 µM throughout.
`C=C1[C@H](O)C[C@@H](C(C)C(O)CC=C(C)C)[C@@H](O)[C@@H]2C(C)=CC[C@@H]12` (stereo partly drawn): the GI50 in the test with OVCAR-5 ovarian, with HL-60(TB) leukemia, with UO-31 renal, in the test on EKVX NSCLC, in the test on SR leukemia and in the test with SW-620 colon was over 100 µM in each case. Also, the GI50 in the test with MALME-3M melanoma, in the test on LOX IMVI melanoma, in the test on HCT-116 colon and with U251 CNS was over 100 µM throughout. Moreover, the TGI in the test with OVCAR-5 ovarian, in the test with HL-60(TB) leukemia, in the test with UO-31 renal, in the test on EKVX NSCLC, in the test on SR leukemia and with SW-620 colon was over 100 µM in each case. The TGI with MALME-3M melanoma, in the test with LOX IMVI melanoma, in the test on HCT-116 colon and in the test with U251 CNS was over 100 µM each time.
As to `COc1ccc(NC(=O)CC2SC(=Nc3ccc(Cl)cc3C)NC2=O)c([N+](=O)[O-])c1` (stereo not drawn), the TGI with OVCAR-5 ovarian, with HL-60(TB) leukemia, in the test with UO-31 renal, in the test on EKVX NSCLC, in the test with SR leukemia and in the test with SW-620 colon was over 100 µM throughout. Further, the TGI with MALME-3M melanoma, in the test on LOX IMVI melanoma, with HCT-116 colon and in the test on U251 CNS was over 100 µM in each case.
In the case of `S=C1NC(c2ccccc2)NC(c2ccccc2)S1` (stereo not drawn), the TGI in the test on OVCAR-5 ovarian, in the test on HL-60(TB) leukemia, in the test on UO-31 renal, with EKVX NSCLC, in the test on SR leukemia and in the test with SW-620 colon was over 100 µM throughout. For the same molecule, the TGI in the test on MALME-3M melanoma, in the test on LOX IMVI melanoma, with HCT-116 colon and in the test on U251 CNS was over 100 µM each time.
Regarding `CS(=O)(=O)Nc1cc(-c2ccc3ncnc(Nc4ccc(OCc5ccccn5)c(Cl)c4)c3c2)cnc1Cl`, the GI50 is 0.325 µM in the test on OVCAR-5 ovarian; 0.23 µM in the test with HL-60(TB) leukemia; 0.337 µM in the test on UO-31 renal; 0.313 µM in the test with EKVX NSCLC; 0.374 µM in the test with SR leukemia; 0.448 µM in the test on SW-620 colon. In addition, the GI50 was 0.0851 µM with MALME-3M melanoma, 0.268 µM in the test with LOX IMVI melanoma, 0.648 µM with HCT-116 colon and 0.316 µM in the test on U251 CNS. Also, the TGI in the test with OVCAR-5 ovarian was found to be 4.58 µM; in the test with HL-60(TB) leukemia, 2.72 µM; with UO-31 renal, 3.86 µM; in the test on EKVX NSCLC, 3.46 µM; with SR leukemia it was 2.77 µM; in the test on SW-620 colon, 10.5 µM. In addition, the TGI is 0.736 µM in the test on MALME-3M melanoma, 1.92 µM in the test with LOX IMVI melanoma, over 100 µM in the test on HCT-116 colon and 2.31 µM with U251 CNS.
In the case of `COc1ccc(CC2OC3(CCCCC3)CC3CCCCN32)cc1` (stereo not drawn), the TGI in the test on OVCAR-5 ovarian, in the test with HL-60(TB) leukemia, with UO-31 renal, with EKVX NSCLC, with SR leukemia and in the test with SW-620 colon was over 100 µM each time. For the same molecule, the TGI in the test with MALME-3M melanoma, in the test on LOX IMVI melanoma, in the test on HCT-116 colon and in the test with U251 CNS was over 100 µM in each case.
On to `COc1ccc(COc2ccc(Cc3cnc(N)nc3N)cc2OC)cc1`, for which the GI50 in the test on OVCAR-5 ovarian was over 25 µM; with HL-60(TB) leukemia it was over 20.6 µM; with UO-31 renal, 11.9 µM; in the test with EKVX NSCLC it was over 16.2 µM; in the test on SR leukemia, 24.3 µM; with SW-620 colon it was over 25 µM. The GI50 in the test on MALME-3M melanoma is over 5.1 µM; in the test on LOX IMVI melanoma, over 25 µM; with HCT-116 colon, 14.6 µM; in the test with U251 CNS, 21.4 µM. Moreover, the TGI in the test on OVCAR-5 ovarian, in the test on HL-60(TB) leukemia, in the test on UO-31 renal, in the test on EKVX NSCLC, in the test with SR leukemia and with SW-620 colon was over 25 µM each time. The TGI with MALME-3M melanoma, with LOX IMVI melanoma, in the test with HCT-116 colon and with U251 CNS was over 25 µM each time.
In the case of `COc1cc2cc(C(=O)Nc3ccccc3)c(N)nc2cc1OC`, the GI50 with OVCAR-5 ovarian was over 100 µM; in the test with HL-60(TB) leukemia, 43.6 µM; with UO-31 renal, 25.7 µM; in the test with EKVX NSCLC, 73.6 µM; with SR leukemia it was 33.9 µM; in the test on SW-620 colon it was over 100 µM. Further, the GI50 in the test with MALME-3M melanoma is 44.3 µM; in the test with LOX IMVI melanoma it was 42.3 µM; in the test on HCT-116 colon, 40.4 µM; in the test on U251 CNS it was 43.1 µM. In addition, the TGI in the test with OVCAR-5 ovarian, with HL-60(TB) leukemia, in the test with UO-31 renal, in the test on EKVX NSCLC, in the test with SR leukemia and in the test with SW-620 colon was over 100 µM throughout. Also, the TGI with MALME-3M melanoma, with LOX IMVI melanoma, in the test on HCT-116 colon and with U251 CNS was over 100 µM in each case.
On to `OCC1OC(n2cnc3cc(Cl)c(Cl)cc32)C(O)C1O` (stereo not drawn), for which the GI50 with OVCAR-5 ovarian is 8.01 µM; in the test on HL-60(TB) leukemia, 20 µM; in the test on UO-31 renal it was 15.8 µM; in the test with EKVX NSCLC, 20.8 µM; with SR leukemia, 0.648 µM; in the test on SW-620 colon, 30.3 µM. Further, the GI50 in the test with MALME-3M melanoma is 25.5 µM; with LOX IMVI melanoma it was 12.1 µM; with HCT-116 colon it was 18 µM; in the test on U251 CNS it was 13.8 µM. The TGI was 36.5 µM with OVCAR-5 ovarian; over 100 µM with HL-60(TB) leukemia; 40 µM with UO-31 renal; 50.8 µM with EKVX NSCLC; over 76.7 µM in the test on SW-620 colon; 67.5 µM in the test on MALME-3M melanoma. The TGI with LOX IMVI melanoma was 29 µM; in the test with HCT-116 colon, 44.2 µM; in the test with U251 CNS, 37.5 µM.
